The source made the active and inactive calls. The rule behind the calls is not given here.
Columns and labels:
NCI-H520 [1] = assay: Induction of apoptosis in human NCI-H520 cells assessed as decrease in MCL-1 protein expression at 5 uM by measuring fold change by Western blot analysis relative to control; format: functional
NCI-H1703 [2] = assay: Induction of apoptosis in human NCI-H1703 cells assessed as necrotic cells at 3 uM measured after 72 hrs by PI/Annexin-V staining based flow cytometry analysis (reference value: 2.80% ); format: functional
NCI-H520 [3] = assay: Induction of apoptosis in human NCI-H520 cells assessed as decrease in Bcl-XL protein expression at 5 to 10 uM by Western blot analysis; format: functional, cell-based; conditions: dose 5-10 µM
NCI-H520 [4] = assay: Induction of apoptosis in human NCI-H520 cells assessed as decrease in Bcl-XL protein expression at 10 uM by measuring fold change by Western blot analysis relative to control; format: functional
NCI-H1703 [5] = assay: Induction of apoptosis in human NCI-H1703 cells assessed as necrotic cells at 10 uM measured after 72 hrs by PI/Annexin-V staining based flow cytometry analysis (reference value: 2.80% ); format: functional
NCI-H1703 [6] = assay: Downregulation of CDC25A in human NCI-H1703 cells measured after 72 hrs by RT-qPCR method; format: functional, cell-based; conditions: dose 3-7.5 µM
NCI-H1703 [7] = assay: Induction of cell cycle arrest in human NCI-H1703 cells assessed as increase accumulation of cells at G2/M phase at […] incubated for 48 hrs by propidium iodide staining based analysis; format: functional; conditions: dose 7.5 µM
NCI-H1703 [8] = assay: Induction of apoptosis in human NCI-H1703 cells assessed as decrease in MCL-1 protein expression at 5 uM by measuring fold change by Western blot analysis relative to control; format: functional

## Cc1cc(CNCCCCCCCCCCC(=O)N[C@H](C(=O)N2C[C@H](O)C[C@H]2C(=O)N[C@@H](C)c2ccc(-c3scnc3C)cc2)C(C)(C)C)cc(C)c1-c1ncn(C)c1-c1ccnc2cc(F)ccc12
NCI-H520 [1]
  fold change (FC): 0.86
NCI-H1703 [2]
  Activity: 1.34%
NCI-H520 [3]
  Activity: Active
NCI-H520 [4]
  fold change (FC): 0.89
NCI-H1703 [5]
  Activity: 16.6%
NCI-H1703 [6]
  Activity: Dose-Dependent Effect
NCI-H1703 [7]
  Activity: Active
NCI-H1703 [8]
  fold change (FC): 0.8

From ChEMBL document CHEMBL5338706, “Discovery of a potent and selective proteolysis targeting chimera (PROTAC) degrader of NSD3 histone methyltransferase” (Eur J Med Chem, 2022)
